# According to patent US9889115B2, “Fitness assay and associated methods” (priority 1998, dated 2018):
# pIC50, pKi: −log10 of the molar value.
# Legend:
# HIV-1 protease G48V/V82A = molecular target: T1, HIV-1 protease G48V/V82A (Human immunodeficiency virus type 1 group M subtype B, UniProt P04585, G536V/V570A); test: continuous fluorogenic HIV protease assay; format: biochemical
# T1 construct: proteases containing the deleterious drug resistance associated mutations V82F/I84V and G48V/V82A
# Procedure: This example describes the protocol for the sensitive continuous fluorogenic assay for HIV protease of the present invention and its application. […] 21702-1201, upon written request. The inhibition constant for wild-type HIV-1, Kimnt/Kiwt ratio, and vitality were measured. (See Gulnik et al., Biochemistry, 34, 9282-9287 (1995). Protease activity was measured using the fluorgenic substrate Lys-Ala-Arg-Val-Tyr-Phe(NO2)-Glu-Ala-Nle-NH2 (Bachem Bioscience, Inc.). (See Peranteau et al., D.H. (1995) Anal. Biochem.).
# The reaction was initiated by the addition of 5 μl of substrate stock solution in water. Increase in fluorescence intensity at the emission maximum of 306 nm (excitation wavelength was 277 nm) was monitored as a function of time using Aminco Bowman-2 luminescence spectrometer (SLM Instruments, Inc.). The initial rate of hydrolysis was calculated by second degree polynomial fit using SLM AB2 2.0 operating software.
# For inhibition studies, inhibitors were prepared as stock solutions at different concentrations in dimethylsulfoxide. […] The reaction was initiated by the addition of 5 μl of substrate stock solution in water. For data analysis, the mathematical model for tight-binding inhibitors was used. (See Williams and Morrison (1979), In: Methods of Enzymol. 63, (ed. D. L. Purich), 437-467, Academic Press, NY, London). […]
# This example describes the inhibitory activity of compounds 35 (FIG. 5A), 36 (FIG. 5B), 37 (FIG. 5C) and 38 (FIG. 5D). In accordance with the technique disclosed in Example 13 above, the inhibitory activity of these compounds was tested against proteases of the wild-type HIV-1. Compound 36, 37 and 38 were also tested against proteases containing the deleterious drug resistance associated mutations V82F/I84V and G48V/V82A. Fitness was determined in accordance with Example 13.
# HIV-1BAL = test: PHA-PBMC assay, p24 Gag protein production; format: cell-based; settings: HIV-1Ba-L; PBMC/p24, day 7 (Table 8)
# [1] = molecular target: T2, wild-type HIV-1 (WT) protease (Human immunodeficiency virus type 1 group M subtype B, UniProt P04585); test: continuous fluorogenic HIV protease assay; format: biochemical; settings: WT (Table 7)
# T2 construct: the proteases of wild-type HIV-1 (WT)
# Procedure: (§1) This example describes the protocol for the sensitive continuous fluorogenic assay for HIV protease of the present invention and its application. […] The inhibition constant for wild-type HIV-1, Kimnt/Kiwt ratio, and vitality were measured.
# (§2) The reaction was initiated by the addition of 5 μl of substrate stock solution in water. […] The initial rate of hydrolysis was calculated by second degree polynomial fit using SLM AB2 2.0 operating software.
# (§3) For inhibition studies, inhibitors were prepared as stock solutions at different concentrations in dimethylsulfoxide. […] The reaction was initiated by the addition of 5 μl of substrate stock solution in water. For data analysis, the mathematical model for tight-binding inhibitors was used.
# HIV-1 protease V82F/I84V [2] = molecular target: T3, HIV-1 protease V82F/I84V (Human immunodeficiency virus type 1 group M subtype B, UniProt P04585, I572V/V570F); test: continuous fluorogenic HIV protease assay; format: biochemical; settings: V82F/I84V (Table 7)
# T3 construct: the proteases of wild-type HIV-1 (WT) and various mutant enzymes
# Procedure: as §1, §2, §3
# HIV-1 protease V82F/I84V [3] = test: continuous fluorogenic HIV protease assay; format: biochemical
# Procedure: as §1, §2, §3
# HIV-1LAI [4] = test: MT-2 cells, MTT assay; format: cell-based; settings: HIV-1LAI; MT-2/MTT, day 7
# Procedure: All drug sensitivities were performed in triplicate. […] The IC50's were determined using the MTT assay on day 7 of culture. All sensitivities were determined in […].
# HIV-1LAI [5] = test: PHA-PBMC assay, p24 Gag protein production; format: cell-based; settings: HIV-1LAI; PBMC/p24, day 7 (Table 8)
compound,measurement,setting,value
CC(C)CN(C[C@@H](O)[C@H](Cc1ccccc1)NC(=O)O[C@H]1CO[C@H]2OCC[C@H]21)S(=O)(=O)c1ccc(CO)cc1 [Compound 37],KI-wt/KI-mut,HIV-1 protease G48V/V82A; G48V/V82A,5.3
same,pKi,HIV-1 protease G48V/V82A; G48V/V82A,10.19
same,Fitness,HIV-1 protease G48V/V82A; G48V/V82A relative to WT,1.4
same,pIC50,HIV-1BAL,8.52
same,KI-wt/KI-mut,[1],1
same,pKi,[1],10.92
same,pKi,HIV-1 protease V82F/I84V [2],10.59
same,KI-wt/KI-mut,HIV-1 protease V82F/I84V [3]; V82F/I84V (Table 7),2.1
same,Fitness,HIV-1 protease V82F/I84V [3]; V82F/I84V relative to WT (Table 7),0.3
same,pIC50,HIV-1LAI [4],8.28
same,pIC50,HIV-1LAI [5],8.57
